Assay results: patent US9630977B2, “Cephalosporin derivatives and pharmaceutical compositions thereof” (Legochem Biosciences, Inc., priority 2011, dated 2017)

Experiments:
P. aeruginosa 1912E = experiment: In vivo efficacy, whole-body infected mouse model, Ceftazidime-sensitive bacteria; design: species or system ICR mouse; details: P. aeruginosa 1912E (2 × 10^6CFU/mouse); for Survival rate: four days
Protocol: (§1) Pharmaceutical efficacy of the cephalosporin derivative compounds according to the present invention was evaluated in a whole-body infected mouse model. Tables 3 and 4 show survival rate and ED50 values for the two compounds with excellent antibacterial activity with regard to an infected mouse by a drug-sensitive bacteria and a drug-resistant bacteria.
(§2) Test animals: 3 week old male ICR mouse, weight 18˜22 g; 5 mice/group.
(§3) Lab conditions: Temperature of 23±2° C.; humidity of 55±20%.
(§4) Administration method: Inducing whole-body infection by bacterial solution followed by subcutaneous injection (0.2 mL) after 1 hour and 4 hours.
(§5) Test method: Cultured bacteria were diluted with 0.9% NaCl to prepare a bacterial solution having a concentration that is 5 to 10 times of […]. 0.5 mL of bacterial solution was injected through abdominal cavity to induce whole-body infection. Test compounds were administered in four different amounts, which were designed considering in vitro MIC values of the test bacteria. After 1 hour and 4 hours, the four different amounts of the test compounds were subcutaneously administered. Survival rates were measured for four days and ED50 values were calculated according to the Probit method.

P. aeruginosa R1023 = experiment: In vivo efficacy, whole-body infected mouse model, Ceftazidime-resistant bacteria;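 on Survival rate: each column one dose of 5 10 20 or 40 mg/kg given sc at 1 h and 4 h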; design: species or system ICR mouse; details: for Survival rate: subcutaneous 1 h and 4 h after infection, P. aeruginosa R1023 (2 × 10^6 CFU/mouse), four days
Protocol: as §1, §2, §3, §4, §5

| SMILES | Survival rate (P. aeruginosa 1912E; 2.5 mg/kg subcutaneous after 1 hour and 4 hours) | Survival rate (P. aeruginosa 1912E; 5 mg/kg subcutaneous after 1 hour and 4 hours) | Survival rate (P. aeruginosa 1912E; 10 mg/kg subcutaneous after 1 hour and 4 hours) | Survival rate (P. aeruginosa 1912E; 20 mg/kg subcutaneous after 1 hour and 4 hours) | ED50 (P. aeruginosa 1912E; Pseudomonas aeruginosa, sc, subcutaneous, Probit method) | ED50 (P. aeruginosa R1023; Pseudomonas aeruginosa, sc, Probit method, subcutaneous, mouse infected by Ceftazidime-resistant P. aeruginosa R1023) | Survival rate (P. aeruginosa R1023; administered amount 5 mg/kg) | Survival rate (P. aeruginosa R1023; administered amount 10 mg/kg) | Survival rate (P. aeruginosa R1023; administered amount 20 mg/kg) | Survival rate (P. aeruginosa R1023; administered amount 40 mg/kg) | pharmaceutical efficacy (in words) (P. aeruginosa R1023; whole-body infected mice by the drug-resistant bacteria) |
| --- | --- | --- | --- | --- | --- | --- | --- | --- | --- | --- | --- |
| CC(C)(O/N=C(\C(=O)N[C@@H]1C(=O)N2C(C(=O)[O-])=C(/C=C/C[n+]3cnc(N)c(NCCNC(=O)c4cc(=O)c(O)cn4O)c3)CSC12)c1csc(N)n1)C(=O)O (some centres unmarked) [Compound 8] | 60% | 80% | 100% | 100% | 1.25 mg/kg | – | – | – | – | – | – |
| C[C@H](O/N=C(\C(=O)N[C@@H]1C(=O)N2C(C(=O)[O-])=C(C[n+]3cnc(N)c(NCCNC(=O)c4cc(=O)c(O)cn4O)c3)CSC12)c1nc(N)sc1Cl)C(=O)O (some centres unmarked) [Compound 4] | – | – | – | – | – | 10 mg/kg | 40% | 40% | 80% | 100% | much greater than that of Ceftazidime |
